The values below come from PMC6268071, “α-Glucosidase Inhibitory Constituents from Acanthopanax senticosus Harm Leaves” (Molecules, 2012).

Like-named read-outs stand apart in the source and are kept apart here.

This test has as its target α-Glucosidase (EC.3.2.1.20) from Saccharomyces sp. Briefly: α-Glucosidase inhibition assay. Type of test: biochemical. The procedure:
Open column chromatography was carried out using silica gel (200–300 mesh, Qingdao Marine Chemical Co., Qingdao, China) or octadecyl silica gel (ODS, 25–40 μm, Fuji, Tokyo, Japan) as stationary phases. TLC employed precoated silica gel plates (5–7 μm, Qingdao Marine Chemical Co., Qingdao, China). Preparative HPLC was carried out on a Waters 600 instument equipped with a Waters RID-2414 detector. A Waters Sunfire prep C18 OBD (19 × 250 mm i.d.; Milford, PA, USA) column was used for preparative purposes. The IR spectra were recorded as KBr pellets on a Jasco 302-A spectrometer. Optical rotation was recorded on a Jasco P-2000 polarimeter. HRESIMS were measured on a FTMS-7 instrument (Bruker Daltonics, Karlsruhe, Germany). Melting points were determined on a Gallenkemp apparatus and are uncorrected. The ^1H-, ^13C- and 2D (^1H-^1H COSY, HSQC, HMBC, NOESY) NMR spectra were recorded on a Bruker AMX-400 spectrometer using standard pulse sequences. Chemical shifts are reported in ppm (δ), and scalar coupling are reported in Hz. GC analyses were carried out using a Fuli 9790 instrument, DM-5 column (0.25 μm, 30 m × 0.25 mm, Dikma, Beijing, China). α-Glucosidase (EC.3.2.1.20) from Saccharomyces sp. was purchased from Wako Pure Chemical Indutries Ltd. (Wako 076-02841; Osaka, Japan).
The α-glucosidase (EC.3.2.1.20) enzyme inhibition assay has been performed according to the literature. α-Glucosidase (25 μL, 0.2 U/mL), various concentrations of samples (25 μL), and 67 mM phosphate buffer (pH 6.8, 175 μL) were mixed at room temperature for 10 min. Reactions were initiated by the addition of 23.2 mM p-nitrophenyl-α-D-glucopyranoside (25 μL). The reaction mixtures were incubated at 37 °C for 15 min in a final volume of 250 μL, and then 1 M Na2CO3 (50 μL) was added to the incubation solution to stop the reaction. The activities of glucosidase were detected in a 96-well plate, and the absorbance was read at 405 nm by a microplate spectrophotometer (Spectra Max, Molecular Devices, Sunnyvale, CA, USA). The negative control was prepared by adding phosphate buffer instead of the sample in the same way as the test. […] The blank was prepared by adding phosphate buffer instead of α-glucosidase using the same method. The inhibition rates (%) were calculated from the formula: […]

[1] abbreviates: in vitro α-glucosidase inhibitory assay, substrate p-nitrophenyl-α-D-glucopyranoside, pH 6.8, 37 °C, value ± SEM, read-out: IC50 (μM ± SEM).
Where [2] appears, read: read-out: α-glucosidase inhibitory activity IC50.

Broadly, the IC50 is the point on the concentration scale where inhibition reaches its midpoint. Turning to `COC(=O)[C@H]1O[C@@H](O[C@H]2CC[C@@]3(C)C(CC[C@]4(C)C3CC=C3C5CC(C)(C)CC[C@]5(C(=O)O)CC[C@]34C)C2(C)C)[C@H](O[C@@H]2O[C@@H](C)[C@H](O)[C@@H](O)[C@H]2O)[C@@H](O)[C@@H]1O` (stereo partly drawn) [Compound 1, 3-O-[(α-L-rhamnopyranosyl)(1→2)]-[β-D-glucuronopyranosyl-6-O-methyl ester]-olean-12-ene-28-olic acid], the 50% inhibitory concentration (IC50) was determined as 908 ± 67.3 µM under setting [1] and 186 µM under setting [2].

Take `COC(=O)[C@H]1O[C@@H](O[C@H]2CC[C@@]3(C)C(CC[C@]4(C)C3CC=C3C5CC(C)(C)CC[C@]5(C(=O)O)CC[C@]34C)C2(C)C)[C@H](O)[C@@H](O)[C@@H]1O` (stereo partly drawn) [Compound 2, 3-O-(β-D-glucuronopyranosyl-6-O-methyl ester)-olean-12-ene-28-olic acid]: under setting [1], the half-inhibitory concentration (IC50) is above 1000 µM.

Regarding `C=C(C)[C@@H]1CC[C@]2(C(=O)O[C@@H]3O[C@H](CO[C@@H]4O[C@H](CO)[C@@H](O[C@@H]5O[C@@H](C)[C@H](O)[C@@H](O)[C@H]5O)[C@H](O)[C@H]4O)[C@@H](O)[C@H](O)[C@H]3O)CC[C@]3(C)[C@H](C[C@H]4OC(=O)C[C@@H](O)[C@]5(C)[C@@H]4[C@@]3(C)CC[C@H]5C(=C)C)[C@@H]12` [Compound 3, chiisanoside], the IC50 under setting [1] was above 1000 µM.

On to `C=C(C)[C@@H]1C[C@H](O)[C@]2(C(=O)O[C@@H]3O[C@H](CO[C@@H]4O[C@H](CO)[C@@H](O[C@@H]5O[C@@H](C)[C@H](O)[C@@H](O)[C@H]5O)[C@H](O)[C@H]4O)[C@@H](O)[C@H](O)[C@H]3O)CC[C@]3(C)[C@H](C[C@H]4OC(=O)C[C@@H](O)[C@]5(C)[C@@H]4[C@@]3(C)CC[C@H]5C(=C)C)[C@@H]12` [Compound 4, 22α-hydroxychiisanoside], for which the IC50 is, setting by setting: under setting [1], 820 ± 91.6 µM; under setting [2], 908 µM.

Consider `COC(=O)CC1C(=O)Nc2ccc(OC)cc21` (stereo not drawn) [Compound 5, 5-methoxy-2-oxoindolin-3-acetic acid methyl ester], for which the IC50 under setting [1] is above 1000 µM.

In the case of `Oc1ccc([C@H]2Oc3cc(O)cc(O)c3C[C@@H]2O)cc1` [Compound 6, (+)-afzelechin], the half-maximal inhibitory concentration (IC50) is, setting by setting: under setting [1], 186 ± 12 µM; under setting [2], 820 µM. Moreover, for the setting “qualitative statement”, the “α-glucosidase inhibition activity (in words)” value is given as “significant α-glucosidase inhibition activity”.

Regarding `OCc1ccc(-c2nccc3c2[nH]c2ccccc23)o1` [Compound 7, perlolyrine], under setting [1], the 50% inhibitory concentration (IC50) is above 1000 µM.

As to `O=C(O)c1cc2c([nH]c3ccccc32)c(-c2ccc(CO)o2)n1` [Compound 8, 3-carboxylperlolyrine], under setting [1], the IC50 was above 1000 µM.
